# In patent publication US20020115649A1, “Use of texaphyrins in macrophage-mediated disease” (Pharmacyclics, Inc., priority 1998, published 2002):
# Experiments:
# Redox potentials listing = format: physicochemical
# Text: Texaphyrin is a known radiosensitizer. Not wanting to be bound by theory, texaphyrin is thought to act as a radiosensitizer in the following manner. Oxygen is the ultimate electron acceptor in physiological systems. However, texaphyrins have a redox potential below that of oxygen.
# [1] = Cardiac toxicity study for texaphyrin and doxorubicin; format: in vivo, Sprague Dawley rats; conditions: 20 micromoles/kg i.v. 1 hour after doxorubicin 1 mg/kg, once a week for twelve weeks; versus doxorubicin alone
# Protocol: To test whether gadolinium texaphyrin exacerbates cardiac toxicity, Sprague Dawley rats were injected intravenously either with 5% mannitol (10 ml/kg, n=6), or doxorubicin (1 mg/kg, n=14), or doxorubicin (1 mg/kg) followed 1 hour later by gadolinium texaphyrin (20 micromoles/kg, n=14). The dosing schedule was repeated once a week for twelve weeks. Animals were sacrificed one week post the last dose, and hearts were fixed in formalin.
# [2] = tested on: restenosis of balloon-injured carotid artery; experiment: Radiation therapy of balloon-injured rat carotid artery in preventing restenosis; format: in vivo, Sprague-Dawley male rats; conditions: 2 weeks post-treatment
# Text: The rat carotid model was used for the studies. Sprague-Dawley male rats weighing about 400-450 g were anesthetized and maintained with Ketamine/Rompun cocktail via the animal's tail vein. The rats were shaved to expose the chest and neck, and a midline incision was made to expose the left common carotid artery, the external carotid artery, and the internal carotid artery. The internal carotid artery was temporally ligated. A small incision was made in the external carotid artery and a 2F Fogarty arterial embolectomy balloon catheter (Baxter Cardiovascular Group, Irvine, Calif.) was introduced from the external carotid artery to the common carotid artery. The balloon was inflated with 0.2 ml of saline and withdrawn from near to the common carotid bifurcation with a rotating motion to produce uniform endothelial denudation and medial stretching in the common carotid artery. After 3 passages, the catheter was removed, the external carotid artery was ligated, and the internal carotid artery was untied. The incision was then closed.
# GdT2BET (2mM in 5% mannitol) at 20 μmol/kg was injected via the tail vein 22 hours following balloon denudation of the carotid artery. Radiation therapy was performed 2 hours after the gadolinium texaphyrin injection. The treatment area was marked and a 250 kV X-ray radiation machine was used. […]
# [3] = Maximum tolerated dose of lutetium texaphyrin in one study; format: in vivo; conditions: intravenous injection; determined in one study
# Protocol: Administration for Photodynaminc Therapy: By way of example, lutetium texaphyrin is administered in solution containing 2 mg/ml optionally in 5% mannitol, USP. Dosages of about 1.0 or 2.0 mg/kg to about 4.0 or 5.0 mg/kg, preferably 3.0 mg/kg may be employed, up to a maximum tolerated dose that was determined in one study to be 5.2 mg/kg. The texaphyrin is administered by intravenous injection, followed by a waiting period of from as short a time as several minutes or about 3 hours to as long as about 72 or 96 hours (depending on the treatment being effected) to facilitate intracellular uptake and clearance from the plasma and extracellular matrix prior to the administration of photoirradiation.
# [4] = tested on: macrophage of restenotic tissue; experiment: Photodynamic therapy of balloon-induced iliac artery lesions (local delivery plus intravascular light); format: in vivo, New Zealand White rabbits
# Protocol: Bilateral iliac artery lesions were induced in 9 male New Zealand White rabbits (NZW) after being on a high cholesterol diet (1%, Dyets, Bethlehem, Pa.) for 3 weeks. Each rabbit was anesthetized using a mixture of ketamine […]. The right carotid artery was exposed, carefully excised and a 5 Fr sheath (USCI) inserted into the descending aorta under fluoroscopic guidance. A 3.0 mm angioplasty balloon was advanced into the right or left iliac artery and then inflated distal to the deep femoral artery three times at 8 atm for 30 seconds. Subsequently, the same procedure was repeated in the contralateral iliac artery. Animals were maintained on the high cholesterol diet.
# Six weeks after the denudation, each rabbit was reanesthetized. The left carotid artery was exposed, carefully excised and a 6 Fr sheath (USCI) inserted into the descending aorta under fluoroscopic guidance. A local drug delivery balloon (3 mm, Scimed, Minneapolis, Minn.) was advanced to the left or right iliac artery and placed at the same position as the previous balloon injury site. The proximal end of the delivery catheter was placed at the internal iliac artery under fluoroscopic control as a landmark reference. The balloon was inflated to 6 atm and 1 μmol/kg lutetium texaphyrin (LuT2BET) (2 mM in 5% mannitol) was infused intraarterially adjacent to the atheroma at a rate of 0.2 ml/min. Fifteen minutes post infusion a 0.9 mm optical fiber with a 3 cm cylindrical diffuser (Laserscope Inc., San Jose, Calif.) connected to an argon pumped dye laser (732 nm, Coherent Inc., Palo Alto, Calif.) delivered intravascular light at 180 J/cmF. One rabbit served as a light alone (no LuT2BET) control.
# Two weeks following light treatment, each animal was euthanized and both iliac arteries were carefully removed from the adjacent tissue. Care was taken to harvest the exact portion of the artery where local drug delivery occurred by matching the anatomy with the respective fluoroscopic picture. The contralateral artery in the LuT2BET-treated rabbit served as a sensitizer alone control vessel. The vessels were fixed in 10% buffered formalin, embedded in paraffin and stained sequentially with RAM 11 (an antibody that binds with a cytoplasmic antigen in rabbit macrophages (DAKO)), and hematoxylin and eosin (H&E) for light microscopic analysis and planimetry.
# [5] = tested on: artery closure after angioplasty; conditions: in vivo; cited from earlier work
molecule,measurement,setting,value
CC(=O)O.CC(=O)O.CCc1c(CC)c2cc3nc(cnc4cc(OCCOCCOCCOC)c(OCCOCCOCCOC)cc4ncc4nc(cc1[n-]2)C(CCCO)=C4C)C(C)=C3CCCO.[Gd] [GdT2B2],redox potential,Redox potentials listing,+0.08 V.
CC(=O)[O-].CC(=O)[O-].CCc1c(CC)c2cc3nc(cnc4cc(OCCOCCOCCOC)c(OCCOCCOCCOC)cc4ncc4nc(cc1[n-]2)C(CCCO)=C4C)C(C)=C3CCCO.O.[Gd+3] [GdT2BET],cardiac toxicity (histologic evaluation),[1],did not significantly exacerbate cardiac toxicity
same,"restenosis in H&E sections, animals of four treated","[2]; 20 μmol/kg i.v. 22 hours after balloon denudation, 7 Gray X-ray 2 hours later, controls 100% restenosis",three had no evidence of restenosis
same,"restenosis, lumen circumference affected in the fourth animal",[2]; 20 μmol/kg i.v. plus 7 Gray,up to 40%
CC(=O)[O-].CC(=O)[O-].CCc1c(CC)c2cc3nc(cnc4cc(OCCOCCOCCOC)c(OCCOCCOCCOC)cc4ncc4nc(cc1[n-]2)C(CCCO)=C4C)C(C)=C3CCCO.O.[Lu+3] [LuT2BET],maximum tolerated dose,[3],5.2 mg/kg
same,macrophages in treated lesion in intima (RAM 11 quantitative analysis),"[4]; 1 μmol/kg intraarterial plus 732 nm light, two weeks after light, versus 21±18%, P<<0.01",5.1±5.3%
same,macrophages in treated lesion in media (RAM 11 quantitative analysis),"[4]; 1 μmol/kg intraarterial plus 732 nm light, two weeks after light, versus 22±20%, P<<0.01",7.7±10%
same,Mean % plaque area in the treated segments,"[4]; 1 μmol/kg intraarterial, 732 nm light 15 min post infusion, two weeks after light, nontreated segments 81±12%, P<<0.01",73±10%
same,destruction of activated macrophages,[4]; with photoirradiation,selectively destroys activated macrophages
"Abciximab (antibody, chains of the INN, looked up, V domains shown, Fab) VH: EVQLQQSGTVLARPGASVKMSCEASGYTFTNYWMHWVKQRPGQGLEWIGAIYPGNSDTSYIQKFKGKAKLTAVTSTTSVYMELSSLTNEDSAVYYCTLYDGYYVFAYWGQGTLVTVSA VL: EIVLTQSPVTLSVTPGDSVSLSCRASRDISNNLHWFQQTSHESPRLLIKYASQSMSGIPSRFSGSGSGTDFTLSINSVETEDFGMYFCQQTNSWPYTFGGGTKLEIK",reduction of the risk of artery closure after angioplasty,[5],up to 70%
